Data on two compounds can be found in US20070161592A1, “Method of treating fear” (priority 2005, published 2007).

Holding throughout (assay type): cell-based, mouse
One data set has as its system adult ACC neurons. Put plainly: LTP induced by EPSPs-APs protocol in ACC slices. Particulars: 0.3 μM. How it is done:
(§1) Coronal brain slices ([…]) from 6-8-week-old C57BL/6 mice, containing ACC or hippocampus, were prepared using standard methods (Wei et al., 2001). Slices were transferred to a submerged recovery chamber containing oxygenated (95% O2 and 5% CO2) artificial cerebrospinal fluid (ACSF) (in mM: 124 NaCl, 4.4 KCl, 2 CaCl2, 1 MgSO4, 25 NaHCO3, 1 NaH2PO4, 10 glucose) at room temperature for at least 1 h.
(§2) Experiments were performed in a recording chamber on the stage of an Axioskop 2FS microscope with infrared DIC optics for visualizing whole-cell patch clamp recordings. EPSCs were recorded from layer II-III neurons using an Axon 200B amplifier (Axon Instruments, CA) and stimulations were delivered using a bipolar tungsten stimulating electrode placed in layer V of the ACC. In hippocampal slices, EPSCs were evoked by stimulating the Schaffer collateral-commissural pathway. EPSCs were induced by repetitive stimulations at 0.02 Hz and neurons were voltage clamped at −70 mV. The recording pipettes (3-5 MΩ) were filled with solution containing (mM) 145 K-gluconate, 5 NaCl, 1 MgCl2, 0.2 EGTA, 10 HEPES, 2 Mg-ATP, and 0.1 Na3-GTP (adjusted to pH 7.2 with KOH). After obtaining stable EPSCs for 10 min, three kinds of LTP induction paradigms were used within 12 min after establishing the whole-cell configuration to prevent wash out effect on LTP induction (Tsvetkov et al., 2002). The first protocol involved paired presynaptic 80 pulses at 2 Hz with postsynaptic depolarization at +30 mV (referred to as pairing training). The second involved paired 3 presynaptic stimuli that caused 3 EPSPs (10 ms ahead) with 3 postsynaptic APs at 30 Hz, paired 15 times every 5 s (named as EPSPs-APs protocol). The third involved theta-burst stimulation (5 trains of burst with 4 pulses at 100 Hz, at 200 ms interval; repeated 4 times at intervals of 10 s; named as TBS). The NMDAR-mediated component of EPSCs was pharmacologically isolated in Mg^2+-free ACSF containing: CNQX (20 μM), glycine (1 μM) and picrotoxin (100 μM). The patch electrodes contained (in mM) 102 cesium gluconate, 5 TEA-chloride, 3.7 NaCl, 11 BAPTA, 0.2 EGTA, 20 HEPES, 2 MgATP, 0.3 NaGTP, and 5 QX-314 chloride (adjusted to pH 7.2 with CsOH). Neurons were voltage clamped at −60 mV and NMDARs-mediated EPSCs were evoked at 0.05 Hz. Picrotoxin (100 μM) was always present to block GABAA receptor-mediated inhibitory synaptic currents. The access resistance was 15-30 MΩ and was monitored throughout the experiment. Data were discarded if access resistance changed by more than 15% during an experiment. Results are expressed as means±SEM. Statistical comparisons were performed using the Student t-test. […]

For data set [1], the system named is NMDAR-mediated currents in the hippocampus. Kind of data set: NMDAR-mediated EPSCs in hippocampal CA1 neurons. Particulars: hippocampus. The procedure: as §1
Experiments were performed in a recording chamber on the stage of an Axioskop 2FS microscope with infrared DIC optics for visualizing whole-cell patch clamp recordings. EPSCs were recorded from layer II-III neurons using an Axon 200B amplifier (Axon Instruments, CA) and stimulations were delivered using a bipolar tungsten stimulating electrode placed in layer V of the ACC. In hippocampal slices, EPSCs were evoked by stimulating the Schaffer collateral-commissural pathway. EPSCs were induced by repetitive stimulations at 0.02 Hz and neurons were voltage clamped at −70 mV. The recording pipettes (3-5 MΩ) were filled with solution containing (mM) 145 K-gluconate, 5 NaCl, 1 MgCl2, 0.2 EGTA, 10 HEPES, 2 Mg-ATP, and 0.1 Na3-GTP (adjusted to pH 7.2 with KOH). After obtaining stable EPSCs for 10 min, three kinds of LTP induction paradigms were used within 12 min after establishing the whole-cell configuration to prevent wash out effect on LTP induction (Tsvetkov et al., 2002). The first protocol involved paired presynaptic 80 pulses at 2 Hz with postsynaptic depolarization at +30 mV (referred to as pairing training). The second involved paired 3 presynaptic stimuli that caused 3 EPSPs (10 ms ahead) with 3 postsynaptic APs at 30 Hz, paired 15 times every 5 s (named as EPSPs-APs protocol). The third involved theta-burst stimulation (5 trains of burst with 4 pulses at 100 Hz, at 200 ms interval; repeated 4 times at intervals of 10 s; named as TBS). The NMDAR-mediated component of EPSCs was pharmacologically isolated in Mg^2+-free ACSF containing: CNQX (20 μM), glycine (1 μM) and picrotoxin (100 μM). The patch electrodes contained (in mM) 102 cesium gluconate, 5 TEA-chloride, 3.7 NaCl, 11 BAPTA, 0.2 EGTA, 20 HEPES, 2 MgATP, 0.3 NaGTP, and 5 QX-314 chloride (adjusted to pH 7.2 with CsOH). Neurons were voltage clamped at −60 mV and NMDARs-mediated EPSCs were evoked at 0.05 Hz. Picrotoxin (100 μM) was always present to block GABAA receptor-mediated inhibitory synaptic currents. The access resistance was 15-30 MΩ and was monitored throughout the experiment. Data were discarded if access resistance changed by more than 15% during an experiment. Results are expressed as means±SEM. Statistical comparisons were performed using the Student t-test.
One possible mechanism is that NR2B-containing receptors may contribute more to total NMDA currents in ACC synapses than in hippocampal synapses. […] Application of 0.1 μM or 0.4 μM NVP-AAM077 depressed total NMDAR-mediated currents by 59.0±4.3% (n=5) and 63.2±1.7% (n=6) in the ACC respectively (FIG. 5). On the other hand, application of 0.3 μM or 3 μM Ro25-6981 attenuated total NMDAR-mediated currents by 18.0±1.9% (n=5) and 18.1±3.4% (n=7) in the ACC respectively, showing that 0.3 μM Ro25-6981 was sufficient to block the NR2B-mediated currents (FIG. 5). This experiment was repeated in hippocampal CA1 neurons. […] However, unlike in the ACC, application of 0.3 μM Ro25-6981 alone potentiated, rather than blocked, total NMDAR-mediated currents by 51.3±16.4% in the hippocampus (FIG. 5).
The same experiment was repeated in the hippocampus.

In data set [2] the test system is NR2B siRNA electroporated ACC neurons. Kind of data set: LTP in siRNA electroporated ACC neurons. The procedure:
as §2, with “Data were discarded if access resistance changed by more than 15% during an experiment.” left out, “means±SEM.” for “means±SEM. Statistical comparisons were performed using the Student t-test.”

As to `C[C@@H](CN1CCC(Cc2ccccc2)CC1)[C@@H](O)c1ccc(O)cc1` [Ro25-6981], in the data set on adult ACC neurons, the “potentiation after EPSPs-APs protocol, % of baseline” value came to 114.4±11.5%. Moreover, the “effect on LTP induced by EPSPs-APs protocol” value with adult ACC neurons (FIG. 4B) is listed as “blocked”. Also, the “further reduction of total NMDAR-mediated currents” value in data set [1] (0.3 μM Ro25-6981 added to the same neuron after 0.4 μM NVP-AAM077) is 6.6±1.4%. In addition, the “potentiation of total NMDAR-mediated currents” value in data set [1] (0.3 μM alone) came to 51.3±16.4%. The “effect on total NMDAR-mediated currents” value in data set [1] (bath application, FIG. 5) is “enhanced”.

“NR2B siRNA: siRNA corresponding to NR2B, sense 5′-GGAUGAGUCCUCCAUGUUCtt-3′, antisense 5′-GAACAUGGAGGACUCAUCCtt-3′, Silencer Pre-designed siRNA ID #61879, Ambion (sense GGAUGAGUCCUCCAUGUUCTT; antisense GAACAUGGAGGACUCAUCCTT; chemistry not given here)”: in data set [2] (FIG. 7D), the “LTP vs control siRNA electroporated neurons” value is “Smaller LTP”. Also, the “potentiation (LTP) vs control siRNA electroporated neurons” value in data set [2] (TBS) and in data set [2] (pairing training protocol) was “significantly reduced” each time.
